Assay results as given in US10780078B2, “Mu opioid receptor modulators” (THE REGENTS OF THE UNIVERSITY OF CALIFORNIA, priority 2017, dated 2020).
Read-outs that look alike come from different tables or passages of the source.

Columns and labels:
μ (MOR) receptor = μ (MOR) receptor (Homo sapiens (Human), UniProt P35372); test: Inhibitory constant at μ opioid receptor (MOR); type: binding
δ (DOR) receptor = δ (DOR) receptor (Homo sapiens (Human), UniProt P41143); test: Inhibitory constant at δ opioid receptor (DOR); type: binding
Chain of δ (DOR) receptor (P41143 whole entry, looked up): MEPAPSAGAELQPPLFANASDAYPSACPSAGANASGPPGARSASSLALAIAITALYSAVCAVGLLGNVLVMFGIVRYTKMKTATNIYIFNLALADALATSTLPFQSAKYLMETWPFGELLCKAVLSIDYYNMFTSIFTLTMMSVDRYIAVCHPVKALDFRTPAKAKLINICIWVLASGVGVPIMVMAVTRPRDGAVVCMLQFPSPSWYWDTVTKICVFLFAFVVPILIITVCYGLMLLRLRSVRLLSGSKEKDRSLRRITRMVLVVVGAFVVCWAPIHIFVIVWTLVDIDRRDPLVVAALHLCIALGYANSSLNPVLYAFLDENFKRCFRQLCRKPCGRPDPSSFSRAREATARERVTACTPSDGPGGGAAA

human μOR = human μOR (Homo sapiens (Human), UniProt P35372); test: cell-based
Protocol: Determination of functional activity of selected embodiments was performed using a BRET-based cAMP accumulation assay. […] After 24 hrs of transfection cells were seeded into white half-area 96-well plates at a density of 10000 cells/well and grown for further 24 hrs. On the day of measurement, medium was removed and replaced by Phosphate Buffered Saline (PBS) and cells were serum starved for 1 hr before treatment with ligands. Cells were preincubated with coelenterazine h (Progmega, Mannheim, Germany) for 5 min at a final concentration of 5 μM before adding forskolin (final concentration 10 μM) to start cAMP accumulation. Immediately after adding forskolin, a series of concentrations of test compounds were added to the cells. After incubating the microplates for 15 min at 37° C. BRET, measurement was performed using a Clariostar plate reader (BMG LabTech, Ortenberg, Germany).

[1] = target: MOR (ProLink tagged MOR-PK1 / β-arrestin-2) (Homo sapiens (Human), UniProt P35372); test: β-arrestin recruitment, PathHunter enzyme complementation assay (DiscoverX); type: cell-based; settings: for MOR activation, β-arrestin recruitment Emax: HEK-293 cells, normalized to maximum effect of DAMGO (100%); for Emax: HEK293, read-out: MOR activation, β-arrestin recruitment Emax
Protocol: (§1) β-Arrestin recruitment was measured by using the PathHunter enzyme complementation assay (DiscoverX, Birmingham, U.K.) as described in the manufacturer's protocol. […] After 24 h cells were transferred into white clear bottom 384-well plates (5000 cells/well) (Greiner Bio-One) and maintained for further 24 h at 37° C., 5% CO2. Test compounds were incubated with the cells in a range from 0.01 nM to 1 μM dissolved in PBS for 90 min at 37° C. Arrestin recruitment was stopped by addition of detection mix for 60 min at room temperature. Chemiluminescence was determined using a Clariostar plate reader. Data analysis was done by nonlinear regression using the algorithms for log(agonist) vs. response of PRISM 6.0 (GraphPad, San Diego, Calif.). […] For testing the arrestin recruitment in the presence of GRK proteins cells were cotransfected with ProLink tagged MOR-PK1 and GRK2 at equal quantities.

[2] = target: MOR (ProLink tagged MOR-PK1 cotransfected with GRK2 / β-arrestin-2) (Homo sapiens (Human), UniProt P35372); test: β-arrestin recruitment in the presence of GRK2, PathHunter assay; type: cell-based; settings: for MOR activation, β-arrestin recruitment (+GRK2) Emax: HEK-293 cells cotransfected with GRK2; for EC50: MOR activation, β-arrestin recruitment (+GRK2) EC50, HEK-293 cells cotransfected with GRK2
Protocol: as §1

[3] = Example 1, read-out: MOR: cAMP BRET: EC50
[4] = HEK-293T cells, forskolin 10 μM, mean of three to ten experiments, read-out: MOR activation, cAMP accumulation EC50
[5] = normalized to maximum effect of DAMGO (100%)

Row | Structure (SMILES) | Ki (μ (MOR) receptor) [nM] | Ki (δ (DOR) receptor) [nM] | MOR activation, cAMP accumulation Emax (human μOR) [%] | MOR: cAMP BRET: Emax (human μOR; Example 1) [%] | EC50 (human μOR; [3]) [nM] | EC50 (human μOR; [4]) [nM] | MOR activation, β-arrestin recruitment Emax [1] [%] | MOR activation, β-arrestin recruitment (+GRK2) Emax [2, 5] [%] | EC50 [2] [nM] | Emax [1] [%] | MOR: Arrestin DiscoverX ([1]; Example 1) | Emax (human μOR; Example 1, read-out: MOR: cAMP BRET: Emax) [%] | Emax (human μOR; HEK-293T, read-out: MOR activation, cAMP accumulation Emax) [%] | Emax ([2]; HEK293, read-out: MOR activation, β-arrestin recruitment (+GRK2) Emax, HEK-293 cells cotransfected with GRK2, normalized to maximum effect of DAMGO (100%)) [%]
1 | C[C@@H](Cc1ccsc1)NC(=O)NCC1(N(C)C)Cc2ccc(O)cc2C1 (single isomer, unassigned) [DD 297B] | 190 | 2000 | 73 | 65 | 12.5 | 13 | <3 | 7 | 670 |  |  |  |  | 
2 | C[C@@H](Cc1ccsc1)NC(=O)NCC1(N(C)C)CCc2ccccc2C1 (single isomer, unassigned) [DD 262 P2] | 1300 | 7400 |  |  |  |  |  |  |  |  |  |  |  | 
3 | C[C@@H](Cc1ccsc1)NC(=O)NCC1(N(C)C)CCc2cc(O)ccc2C1 (single isomer, unassigned) [DD 272B] | 57 | 840 | 98 | 50 | 1.6 | 1.5 |  | 7 | 450 | < 3 |  |  |  | 
4 | C[C@@H](Cc1ccsc1)NC(=O)NCC1(N(C)C)Cc2ccccc2C1 [DD 277, (S)-1-((2-(dimethylamino)-2,3-dihydro-1H-inden-2-yl)methyl)-3-(1-(thiophen-3-yl)propan-2-yl)urea] | 500 | 8400 |  |  |  |  |  |  |  |  |  |  |  | 
5 | C[C@@H](Cc1ccsc1)NC(=O)NCC1(N(C)C)Cc2ccc(O)cc2C1 (stereo partly drawn) [DD 297A, 1-((2-(dimethylamino)-5-hydroxy-2,3-dihydro-1H-inden-2-yl)methyl)-3-((S)-1-(thiophen-3-yl)propan-2-yl)urea] |  |  |  |  |  |  |  |  |  |  | no significant activity |  |  | 
6 | C[C@@H](Cc1ccsc1)NC(=O)NCC1(N(C)C)CCc2ccccc2C1 (single isomer, unassigned) [DD 262 P1] | 2600 | 14000 |  |  |  |  |  |  |  |  |  |  |  | 
7 | C[C@@H](Cc1ccsc1)NC(=O)NCC1(N(C)C)Cc2ccc(O)cc2C1 (single isomer, unassigned) [DD 297A] | 5.9 | 68 |  |  | 1.8 | 1.2 |  |  | 42 | < 3 |  | 80 | 80 | 13
8 | C[C@@H](Cc1ccsc1)NC(=O)NCC1(N(C)C)CCc2cc(O)ccc2C1 (single isomer, unassigned) [DD 272A] | 140 | 1800 | 75 | 108 | 136 | 24 | <3 | <3 |  |  |  |  |  | 
